Source: the OligoGym collection
HELM strings list units from the 5' end as sugar, base in round brackets, then linkage (d deoxyribose, r ribose, m 2'-O-methyl, p phosphodiester). Strings are as the collection lists them; they lack the last nucleoside at the 3' end of the tested compound. [moe] = 2'-O-(2-methoxyethyl) (MOE); [sp] = phosphorothioate linkage; [m5C] = 5-methylcytosine

Molecular target: UBE3A-ATS
Experiment: mouse, dose not given
Conditions: ASO

Substance	3 h FOB score [score 0-7]
RNA1{[moe](A)[sp].[moe]([m5C])p.[moe](T)p.[moe](G)p.d([m5C])[sp].d(T)[sp].d(T)[sp].d([m5C])[sp].d(A)[sp].d([m5C])[sp].d([m5C])[sp].d(A)[sp].d(T)[sp].d(T)[sp].[moe](T)p.[moe](T)p.[moe](G)p.[moe](A)[sp].[moe]([m5C])}$$$$ (last 3' nucleoside missing)	1
RNA1{[moe](G)[sp].[moe](T)p.[moe](T)p.[moe](T)p.d(T)[sp].d(T)[sp].d([m5C])[sp].d([m5C])[sp].d(A)[sp].d(T)[sp].d(T)[sp].d(T)[sp].d(T)[sp].d(T)[sp].[moe]([m5C])p.[moe](T)p.[moe]([m5C])p.[moe](T)[sp].[moe](T)}$$$$ (last 3' nucleoside missing)	0
RNA1{[moe](A)[sp].[moe](G)p.[moe](G)p.[moe](T)p.d([m5C])[sp].d(A)[sp].d(A)[sp].d([m5C])[sp].d([m5C])[sp].d(A)[sp].d(A)[sp].d(T)[sp].d(T)[sp].d(T)[sp].[moe](G)p.[moe]([m5C])p.[moe](T)p.[moe](A)[sp].[moe](T)}$$$$ (last 3' nucleoside missing)	1
RNA1{[moe](G)[sp].[moe](G)p.[moe](A)p.[moe](T)p.[moe](T)p.d(T)[sp].d(T)[sp].d(A)[sp].d(T)[sp].d(T)[sp].d(G)[sp].d(G)[sp].d(T)[sp].d([m5C])[sp].d(A)[sp].[moe](T)p.[moe]([m5C])p.[moe](T)[sp].[moe]([m5C])}$$$$ (last 3' nucleoside missing)	5
RNA1{[moe]([m5C])[sp].[moe](A)p.[moe](G)p.[moe]([m5C])p.[moe]([m5C])p.d(A)[sp].d(G)[sp].d(G)[sp].d(T)[sp].d(G)[sp].d(T)[sp].d([m5C])[sp].d(T)[sp].d(T)[sp].d(A)[sp].[moe](T)p.[moe](A)p.[moe](T)[sp].[moe]([m5C])}$$$$ (last 3' nucleoside missing)	2.3
